Assay results: US9060966B2, “Use of 2,5-dihydroxybenzene derivatives for the treatment of arthritis and pain” (priority 2006, dated 2015)

System: methacholine induced bronchoconstriction in OVA-sensitized mice
Test: Experimentally induced (OVA) asthma in mice: methacholine bronchoconstriction and BAL cell count
Type: in vivo
Details: for methacholine induced bronchoconstriction (Penh): methacholine 5 and 20 mg/mL
Description: Effect of potassium 2,5-diacetoxybenzene sulfonate (DABS) on bronchoconstriction in asthmatic mice treated with methacholine. All the mice were exposed to nebulized methacholine (MC; 5 and 20 mg/ml). Bronchoconstriction was determined as the enhanced pause. (Penh), calculated as described in the corresponding example (example 13).
Effect of potassium 2,5-diacetoxybenzene sulfonate (DABS) on the inflammatory cell count in the bronchoalveolar lavage (BAL) in asthmatic mice.
6-9 week old Balb/c mice were used. The ovoalbumin (OVA)/aluminum complex was obtained after dissolving OVA (500 μg/mL) in PBS, and mixing it with an equal volume of 10% aluminum potassium sulfate at pH 6.5 for 1 hour. After centrifuging the pellet (750×g for 5 minutes) the OVA/aluminum pellet was resuspended in distilled water. On day 0, the mice were injected intraperitoneally injected with 100 μg of OVA/aluminum. Eight days later, the mice were anesthetized and exposed to 250 μg of OVA. Later, they were administered 125 μg of OVA on days 15, 18 and 21. […].
The following treatments were administered to the animals: (i.p.) vehicle from day 2, potassium 2,5-diacetoxybencene sulfonate (DABS; 100 mg/kg/day, i.p.) from day 2, DABS (100 mg/kg/day, i.p.) from day 8 and Combivent (20 μg/200 μg in aerosol) on days 20, 21 and 22, the latter as a reference treatment.
In order to evaluate the pulmonary function, the response to methacholine in conscious mice was determined, 24 hours after the last exposure to OVA. The mice were exposed to increasing methacholine concentrations (5 and 20 mg/mL) in the form of aerosol using an ultrasonic nebulizer during 2 minutes. The degree of bronchoconstriction was expressed as the enhanced pause (Penh) which correlates to the mouse air resistance, impedance and pressure within the pleura. The Penh enh was calculated using the formula Penh=[([…]/Rt−1)×(PEF/PIF)], where Te is expiratory time, Rt is relaxation time, PEF is peak expiratory flow and PIF is peak inspiratory flow x 0.67 coefficient.
After measuring airway hyperreactivity, the mice were sacrificed and the bronchoalveolar lavage (BAL) of the right lung was collected. The total number of cells in the BAL fluid was determined.

CC(=O)Oc1ccc(OC(C)=O)c(S(=O)(=O)[O-])c1.[K+] [DABS, potassium 2,5-diacetoxybenzene sulfonate]
reduction of BAL cells compared with Combivent (100 mg/kg/day i.p.): even more than the treatment with Combivent | methacholine induced bronchoconstriction (Penh) (100 mg/kg/day i.p. from day 2): completely prevented | methacholine induced bronchoconstriction (Penh) (100 mg/kg/day i.p. from day 8): completely prevented | presence of cells in bronchoalveolar lavage (BAL) (100 mg/kg/day i.p., from day 2 or day 8): significantly reduced | increase of Penh after exposure to methacholine vs saline (DABS groups, 100 mg/kg/day i.p.): do not show a significant increase
